Test results published in PubChem BioAssay (NCI).
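Where inhibition never reached the appropriate level, the endpoint shown equals the highest concentration tested. Otherwise, values were interpolated linearly from a five-concentration, 48-hour dose response in 96-well plates. GI50: concentration for 50% inhibition of growth. TGI marks complete inhibition of growth.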

How the values were obtained:
Test in all cases: DTP human tumour cell line panel, 48 h
DMS 273 small cell lung = tested on: DMS 273 small cell lung
KM20L2 colon = tested on: KM20L2 colon
SNB-78 CNS = tested on: SNB-78 CNS
HOP-18 NSCLC = tested on: HOP-18 NSCLC
RXF-631 renal = tested on: RXF-631 renal
DMS 114 small cell lung = tested on: DMS 114 small cell lung
DLD-1 colon = tested on: DLD-1 colon
XF 498 CNS = tested on: XF 498 CNS
MDA-N = tested on: MDA-N

SMILES	TGI (DMS 273 small cell lung)	TGI (KM20L2 colon)	TGI (SNB-78 CNS)	TGI (HOP-18 NSCLC)	TGI (RXF-631 renal)	TGI (DMS 114 small cell lung)	TGI (DLD-1 colon)	TGI (XF 498 CNS)	TGI (MDA-N)	GI50 (DMS 273 small cell lung)	GI50 (KM20L2 colon)	GI50 (SNB-78 CNS)	GI50 (DLD-1 colon)
CCN(CC)C(=S)N/N=C(\C)c1ccccc1O	> 100 µM	59.2 µM	> 100 µM	86.5 µM	> 100 µM	> 100 µM	> 100 µM	–	–	–	–	–	–
COc1cc2c(cc1OC)[C@@H](C(O)c1ccccc1)NCC2 (some centres not stated)	> 100 µM	> 100 µM	> 100 µM	–	> 100 µM	> 100 µM	> 100 µM	> 100 µM	–	–	–	–	–
CCc1oc2ccccc2c1C(=O)c1cc(Br)c(O)c(Br)c1	–	–	–	–	–	–	–	–	> 100 µM	–	–	–	–
Cn1c(=O)c2[nH]c(COCc3nc4c([nH]3)c(=O)n(C)c(=O)n4C)nc2n(C)c1=O	–	–	–	–	–	–	–	–	> 100 µM	–	–	–	–
CC(=O)Oc1cccc2c1C(=O)C(Br)(Br)CCC2	14.9 µM	21.7 µM	33.8 µM	32.2 µM	35.5 µM	7.79 µM	36.2 µM	24.1 µM	12.8 µM	–	–	–	–
O=Cc1[nH]c2ccccc2c1Br	36.3 µM	41.5 µM	44.1 µM	83.4 µM	44.1 µM	44.7 µM	> 100 µM	63.7 µM	–	–	–	–	–
CCCCC(=O)[O-].N.N.N.N.N.[Co+3].[O-][Cl+3]([O-])([O-])[O-]	> 100 µM	> 100 µM	> 100 µM	–	–	–	> 100 µM	–	–	> 100 µM	> 100 µM	> 100 µM	> 100 µM
CC(=O)OC[C@@H]1[C@H]2CC(=O)O[C@H]2C[C@H]1OC(C)=O	> 100 µM	> 100 µM	> 100 µM	> 100 µM	–	> 100 µM	> 100 µM	–	–	–	–	–	–
CC(C)(C)C(=O)C(c1ccc(-c2cscn2)cc1)c1ccc(-c2cscn2)cc1	> 100 µM	> 100 µM	78.5 µM	> 100 µM	> 100 µM	–	> 100 µM	80.5 µM	–	–	–	–	–
CC(=S)NNC(=O)c1ccncc1	> 100 µM	> 100 µM	> 100 µM	> 100 µM	–	–	> 100 µM	> 100 µM	–	–	–	–	–
NC(=O)C1=C(c2ccccc2)c2ccccc2C1=O	–	–	–	–	–	–	–	–	38.1 µM	–	–	–	–
CN(C)c1ccc(/C=C2\N=C(c3ccc(N)cc3)OC2=O)cc1	> 100 µM	> 100 µM	> 100 µM	> 100 µM	> 100 µM	> 100 µM	> 100 µM	> 100 µM	–	–	–	–	–
COc1ccc(C=NC23CC4CC(CC(C4)C2)C3)cc1	> 10 µM	> 100 µM	> 100 µM	–	–	> 100 µM	–	–	–	–	–	–	–
CCOC(=O)NC(=O)c1cn(CCCOC(=O)CCCCCCCCC(=O)OCCCn2cc(C(=O)NC(=O)OCC)c(=O)[nH]c2=O)c(=O)[nH]c1=O	66.6 µM	> 100 µM	> 100 µM	56.4 µM	–	39.2 µM	53.1 µM	72.4 µM	–	–	–	–	–
O=C(Nc1nccs1)c1cc(C2=CC=CC([N+](=O)[O-])C=C2)nc(=S)[nH]1 (configuration not stated)	> 100 µM	> 100 µM	> 100 µM	> 100 µM	–	> 100 µM	–	–	–	–	–	–	–
O=C(O)c1ccc([N+](=O)[O-])c2c(=O)c3ccccc3[nH]c12	> 100 µM	> 100 µM	> 100 µM	> 100 µM	> 100 µM	> 100 µM	> 100 µM	–	–	–	–	–	–
